Test results taken from patent US11400107B2, “Cancer treatments” (NuCana plc, priority 2016, dated 2022).
Entries after “also recorded” stand apart in the source; their conditions may differ.

Assays:
[1] = test system: primary acute myeloid leukaemia (AML) blasts; test: In vitro cytotoxicity assay (LD50) in primary acute myeloid leukaemia cells; format: cell-based, human; details: for LD50: primary AML blasts, 48 h, concentration required to kill 50% of the tumour cells in culture; for potency as compared to the respective parent compound (summary): summary statement of the description
Protocol: ProTide compounds, as defined herein, and the comparator ProTide compound NUC-1031 were assayed for their cytotoxic effects on primary cultures of acute myeloid leukaemia (AML) blasts. LD50 values (the concentration required to kill 50% of the tumour cells in culture) were calculated in respect of the ProTide compounds of the invention, and the parent compounds from which they are derived. […] The LD50 values of the ProTide compounds as defined herein (and their parent compounds) were compared with the comparator ProTide NUC-1031 and its parent compound gemcitabine.
Bone marrow samples were collected in ethylenediaminetetraacetic acid (EDTA) from newly diagnosed, previously untreated, acute myeloid leukaemia (AML) patients. AML blasts were enriched by density gradient centrifugation using Histopaque (Sigma, Poole, UK) and were subsequently maintained in Roswell Park Memorial Institute medium (RPMI) supplemented with 10% foetal bovine serum (FBS). Cells were treated with ProTide compounds (either as encompassed by the present invention, or the comparator ProTide NUC-1031) or with the ProTides' parent compounds at a range of experimental concentrations, and incubated for 48 h. All cultures were maintained at 37° C. in a 5% CO2 humidified atmosphere.
Cells were harvested and labelled with CD34-fluorescein isothiocyanate (FITC) (BD Biosciences, Buckingham, UK) and then resuspended in 200 μl of binding buffer containing 4 μl of annexin V labelled with allophycocyanin (APC) (eBioscience Ltd, Hatfield, UK). Apoptosis was quantified in the CD34^+ AML cells using an Accuri C6 flow cytometer (Becton Dickinson, CA, USA). At least 10,000 events were acquired and data were subsequently analysed using FlowJo software (Tree Star Inc., Ashland, Oreg., USA). All LD50 values (concentration of drug required to kill 50% of cells) were derived from the dose-response curves.

[2] = test system: Lin^−/CD34^+/CD38^−/CD123^+ cancer stem cells in KG1a cells; test: Immunophenotypic quantification of the leukaemic stem cell compartment in KG1a cells; format: cell-based, human; details: for low concentration at which the selective reduction of cancer stem cells was still observed / proportion of cancer stem cells as compared to non-stem cancer cells after treatment / selectivity against cancer stem cells compared to the parent compound: KG1a cells; for proportion of cancer stem cells as compared to non-stem cancer cells after treatment: 72 h; for selectivity for cancer stem cells as opposed to non-stem cancer cells (summary): summary statement of the description
Protocol: The respective abilities of NUC-1031 and gemcitabine to target CSCs were investigated in the AML cell line KG1a.
KG1a cells were cultured for 72 hours in the presence of a wide range of concentrations of each nucleoside analogue and their respective ProTides. Cells were then harvested and labelled with a cocktail of anti-lineage antibodies (PE-cy7), anti-CD34 (FITC), anti-CD38 (PE) and anti-CD123 (PERCP cy5). The sub-population expressing a leukaemic stem cell (LSC) phenotype were subsequently identified and were expressed as a percentage of all viable cells left in the culture. The percentages of stem cells remaining were then plotted on a dose-response graph and the proportion of cancer stem cells was compared across the various concentrations of ProTides and their respective parent compounds, in order to determine if they preferentially target cancer stem cells.
The data obtained in these experiments were evaluated using one way ANOVA. All data was confirmed as Gaussian or a Gaussian approximation using the omnibus K2 test. LD50 values were calculated from the non-linear regression and line of best-fit analysis of the sigmoidal dose-response curves. All statistical analyses were performed using Graphpad Prism 6.0 software (Graphpad Software Inc., San Diego, Calif.).

Row | Compound | LD50 [1] | potency as compared to the respective parent compound (summary) [1] | low concentration at which the selective reduction of cancer stem cells was still observed [2] | proportion of cancer stem cells as compared to non-stem cancer cells after treatment [2] | selectivity for cancer stem cells as opposed to non-stem cancer cells (summary) [2] | selectivity against cancer stem cells compared to the parent compound [2]
1 | C[C@H](NP(=O)(OC[C@H]1O[C@@H](n2cc(F)c(=O)[nH]c2=O)CC1O)Oc1cccc2ccccc12)C(=O)OCc1ccccc1 (single isomer, unassigned) [CPF-373 (Iso A)] | CPF 373 (Iso A) 0.052 μM | greater potency | approximately 8×10^−8 M | reduction in the proportion of cancer stem cells | selectively target for cancer stem cells; also recorded: high selectivity for cancer stem cells | –
2 | C[C@H](NP(=O)(OC[C@H]1O[C@@H](n2cc(F)c(=O)[nH]c2=O)CC1O)Oc1cccc2ccccc12)C(=O)OCc1ccccc1 (single isomer, unassigned) [CPF-373 (Iso B)] | CPF 373 (Iso B) 0.055 μM | greater potency | approximately 8×10^−8 M | reduction in the proportion of cancer stem cells | selectively target for cancer stem cells; also recorded: high selectivity for cancer stem cells | –
3 | C[C@H](NP(=O)(OC[C@H]1O[C@@H](n2cc(F)c(=O)[nH]c2=O)CC1O)Oc1cccc2ccccc12)C(=O)OCc1ccccc1 (some centres unmarked) [CPF-373 (mix)] | CPF 373 (mix) 0.053 μM | – | – | – | – | –
4 | C[C@H](NP(=O)(OC[C@H]1O[C@@H](n2cc(F)c(=O)[nH]c2=O)CC1O)Oc1ccccc1)C(=O)OCc1ccccc1 (some centres unmarked) [CPF-381] | CPF 381 0.039 μM | greater potency | approximately 8×10^−8 M | reduction in the proportion of cancer stem cells | selectively target for cancer stem cells; also recorded: high selectivity for cancer stem cells | –
5 | C[C@H](NP(=O)(OC[C@H]1O[C@@H](n2cnc3c(N)nc(Cl)nc32)[C@H](F)C1O)Oc1ccccc1)C(=O)OCc1ccccc1 (some centres unmarked) [CPF-448] | – | – | approximately 6×10^−8 M | reduction in the proportion of cancer stem cells | selectively target for cancer stem cells; also recorded: high selectivity for cancer stem cells | greater selectivity
6 | CCOC(=O)[C@H](C)NP(=O)(OC[C@H]1O[C@@H](n2cnc3c(N)nc(F)nc32)[C@H](O)C1O)Oc1cccc2ccccc12 (some centres unmarked) [CPF-544] | – | – | – | significant decrease in the proportion of cancer stem cells | selectively target for cancer stem cells; also recorded: high selectivity for cancer stem cells | comparable
7 | C[C@H](NP(=O)(OC[C@H]1O[C@@H](n2cnc3c(N)nc(F)nc32)[C@H](O)C1O)Oc1ccccc1)C(=O)OCc1ccccc1 (some centres unmarked) [CPF-682] | – | – | – | significant decrease in the proportion of cancer stem cells | selectively target for cancer stem cells; also recorded: high selectivity for cancer stem cells | comparable
8 | C[C@H](NP(=O)(OC[C@H]1O[C@@H](n2cnc3c(N)nc(Cl)nc32)[C@H](F)C1O)Oc1cccc2ccccc12)C(=O)OCC(C)(C)C (some centres unmarked) [CPF-720] | – | – | approximately 6×10^−8 M | reduction in the proportion of cancer stem cells | selectively target for cancer stem cells | –
9 | CCCCCOC(=O)[C@@H](C)NP(=O)(OC[C@H]1O[C@@H](n2cnc3c(N)nc(Cl)nc32)[C@H](F)C1O)Oc1cccc2ccccc12 (some centres unmarked) [CPF-727] | – | – | approximately 6×10^−8 M | reduction in the proportion of cancer stem cells | selectively target for cancer stem cells | –
10 | C[C@H](NP(=O)(OC[C@H]1O[C@@H](n2cnc3c(=S)[nH]cnc32)[C@@H](O)C1O)Oc1cccc2ccccc12)C(=O)OCc1ccccc1 (some centres unmarked) [CPF-761] | – | – | – | reduction of the proportion of cancer stem cells | selectively target for cancer stem cells | greater selectivity; also recorded: most selective; also recorded: increase in selectivity was statistically significant
11 | C[C@H](NP(=O)(OC[C@H]1O[C@@H](n2cnc3c(=S)[nH]cnc32)[C@@H](O)C1O)Oc1cccc2ccccc12)C(=O)OCC(C)(C)C (some centres unmarked) [CPF-762] | – | – | – | reduction of the proportion of cancer stem cells | selectively target for cancer stem cells | greater selectivity
12 | C[C@H](NP(=O)(OC[C@H]1O[C@@H](n2cnc3c(=S)[nH]c(N)nc32)[C@@H](O)C1O)Oc1cccc2ccccc12)C(=O)OCc1ccccc1 (some centres unmarked) [CPF-775] | – | – | – | strong reduction in the proportion of cancer stem cells | selectively target for cancer stem cells; also recorded: high selectivity for cancer stem cells | statistically significant increases in selectivity at certain concentrations
13 | C[C@H](NP(=O)(Oc1cccc2ccccc12)OC1C[C@H](n2cnc3c(N)nc(Cl)nc32)O[C@@H]1CO)C(=O)OCc1ccccc1 (some centres unmarked) [CPF-791] | – | – | – | reduction in the proportion of cancer stem cells | selectively target for cancer stem cells | greater selectivity
14 | C[C@H](NP(=O)(Oc1ccccc1)OC1C[C@H](n2cnc3c(N)nc(Cl)nc32)O[C@@H]1CO)C(=O)OCc1ccccc1 (some centres unmarked) [CPF-793] | – | – | approximately 6×10^−8 M | reduction in the proportion of cancer stem cells; also recorded: particularly striking | selectively target for cancer stem cells; also recorded: high selectivity for cancer stem cells | greater selectivity; also recorded: statistically significant
15 | Nc1nc(Cl)nc2c1ncn2[C@H]1C[C@H](O)[C@@H](CO)O1 [Cladribine] | – | – | – | reduction in the proportion of cancer stem cells | – | –
16 | Nc1nc(Cl)nc2c1ncn2[C@@H]1O[C@H](CO)[C@@H](O)[C@@H]1F [Clofarabine] | – | – | approximately 6×10^−8 M | reduction in the proportion of cancer stem cells | – | –
17 | Nc1ccn([C@@H]2O[C@H](CO)[C@@H](O)C2(F)F)c(=O)n1 [Gemcitabine] | Gemcitabine 1.4 μM | – | – | – | – | –
18 | OC[C@H]1O[C@@H](n2cnc3c(S)ncnc32)[C@H](O)[C@@H]1O [Thioinosine] | – | – | – | reduction of the proportion of cancer stem cells | – | –
